The text below walks through data of PubChem BioAssay AID1259407 (Chemical Carcinogenesis Research Information System (CCRIS), 2018).

The data set deals with CCRIS mutagenicity, Ames/micronucleus/aberration tests. Kind of data set: CCRIS mutagenicity studies.
The mark [1] stands for this setting: Test System: AMES SALMONELLA TYPHIMURIUM, Strain/Indicator: TA98, Metabolic Activation: NONE, Method: STANDARD PLATE.
Where [2] appears, read: Test System: AMES SALMONELLA TYPHIMURIUM, Strain/Indicator: TA98, Metabolic Activation: RAT, LIVER, S-9, AROCLOR 1254, Method: STANDARD PLATE.
Setting [3] is: Test System: AMES SALMONELLA TYPHIMURIUM, Strain/Indicator: TA100, Metabolic Activation: NONE, Method: STANDARD PLATE.
The mark [4] stands for this setting: Test System: AMES SALMONELLA TYPHIMURIUM, Strain/Indicator: TA1535, Metabolic Activation: RAT, LIVER, S-9, AROCLOR 1254, Method: STANDARD PLATE.

The source made the active and inactive calls. No rule for the calls is given here.

As for `CCC(C)(C)C`, the mutagenic call was “inactive; negative” (Test System: AMES SALMONELLA TYPHIMURIUM, Strain/Indicator: TA97, Metabolic Activation: HAMSTER, LIVER, S-9, AROCLOR 1254 (10 OR 30%), Method: PREINCUBATION); “inactive; negative” (Test System: AMES SALMONELLA TYPHIMURIUM, Strain/Indicator: TA97, Metabolic Activation: NONE, Method: PREINCUBATION); “inactive; negative” (Test System: AMES SALMONELLA TYPHIMURIUM, Strain/Indicator: TA97, Metabolic Activation: RAT, LIVER, S-9, AROCLOR 1254 (10 OR 30%), Method: PREINCUBATION); “inactive; negative” (Test System: AMES SALMONELLA TYPHIMURIUM, Strain/Indicator: TA98, Metabolic Activation: HAMSTER, LIVER, S-9, AROCLOR 1254 (10%), Method: PREINCUBATION); “inactive; negative” (Test System: AMES SALMONELLA TYPHIMURIUM, Strain/Indicator: TA98, Metabolic Activation: HAMSTER, LIVER, S-9, AROCLOR 1254 (30%), Method: DESICCATOR); “inactive; negative” (Test System: AMES SALMONELLA TYPHIMURIUM, Strain/Indicator: TA98, Metabolic Activation: HAMSTER, LIVER, S-9, AROCLOR 1254 (30%), Method: PREINCUBATION). Further, the mutagenic call by setting is: (Test System: AMES SALMONELLA TYPHIMURIUM, Strain/Indicator: TA98, Metabolic Activation: NONE, Method: DESICCATOR) “inactive; negative”; (Test System: AMES SALMONELLA TYPHIMURIUM, Strain/Indicator: TA98, Metabolic Activation: NONE, Method: PREINCUBATION) “inactive; negative”; (Test System: AMES SALMONELLA TYPHIMURIUM, Strain/Indicator: TA98, Metabolic Activation: RAT, LIVER, S-9, AROCLOR 1254 (10%), Method: PREINCUBATION) “inactive; negative”; (Test System: AMES SALMONELLA TYPHIMURIUM, Strain/Indicator: TA98, Metabolic Activation: RAT, LIVER, S-9, AROCLOR 1254 (30%), Method: DESICCATOR) “inactive; negative”; (Test System: AMES SALMONELLA TYPHIMURIUM, Strain/Indicator: TA98, Metabolic Activation: RAT, LIVER, S-9, AROCLOR 1254 (30%), Method: PREINCUBATION) “inactive; negative”; (Test System: AMES SALMONELLA TYPHIMURIUM, Strain/Indicator: TA100, Metabolic Activation: HAMSTER, LIVER, S-9, AROCLOR 1254 (10%), Method: PREINCUBATION) “inactive; negative”. The mutagenic call is, setting by setting: (Test System: AMES SALMONELLA TYPHIMURIUM, Strain/Indicator: TA100, Metabolic Activation: HAMSTER, LIVER, S-9, AROCLOR 1254 (30%), Method: DESICCATOR) “inactive; negative”; (Test System: AMES SALMONELLA TYPHIMURIUM, Strain/Indicator: TA100, Metabolic Activation: HAMSTER, LIVER, S-9, AROCLOR 1254 (30%), Method: PREINCUBATION) “inactive; negative”; (Test System: AMES SALMONELLA TYPHIMURIUM, Strain/Indicator: TA100, Metabolic Activation: NONE, Method: DESICCATOR) “inactive; negative”; (Test System: AMES SALMONELLA TYPHIMURIUM, Strain/Indicator: TA100, Metabolic Activation: NONE, Method: PREINCUBATION) “inactive; negative”; (Test System: AMES SALMONELLA TYPHIMURIUM, Strain/Indicator: TA100, Metabolic Activation: RAT, LIVER, S-9, AROCLOR 1254 (10%), Method: PREINCUBATION) “inactive; negative”; (Test System: AMES SALMONELLA TYPHIMURIUM, Strain/Indicator: TA100, Metabolic Activation: RAT, LIVER, S-9, AROCLOR 1254 (30%), Method: DESICCATOR) “inactive; negative”. The mutagenic call was “inactive; negative” (Test System: AMES SALMONELLA TYPHIMURIUM, Strain/Indicator: TA100, Metabolic Activation: RAT, LIVER, S-9, AROCLOR 1254 (30%), Method: PREINCUBATION); “inactive; negative” (Test System: AMES SALMONELLA TYPHIMURIUM, Strain/Indicator: TA1535, Metabolic Activation: HAMSTER, LIVER, S-9, AROCLOR 1254 (10 OR 30%), Method: PREINCUBATION); “inactive; negative” (Test System: AMES SALMONELLA TYPHIMURIUM, Strain/Indicator: TA1535, Metabolic Activation: NONE, Method: PREINCUBATION); “inactive; negative” (Test System: AMES SALMONELLA TYPHIMURIUM, Strain/Indicator: TA1535, Metabolic Activation: RAT, LIVER, S-9, AROCLOR 1254 (10 OR 30%), Method: PREINCUBATION).

As for `O=S(=O)(Oc1ccc(Cl)cc1Cl)c1cccc2cccnc12`, the mutagenic call is “inactive; negative” under setting [1]; “active; positive” under setting [2]; “inactive; negative” under setting [3]; “active; positive” (Test System: AMES SALMONELLA TYPHIMURIUM, Strain/Indicator: TA100, Metabolic Activation: RAT, LIVER, S-9, AROCLOR 1254, Method: STANDARD PLATE); “inactive; negative” (Test System: AMES SALMONELLA TYPHIMURIUM, Strain/Indicator: TA1535, Metabolic Activation: NONE, Method: STANDARD PLATE); “inactive; negative” under setting [4]. Besides, the mutagenic call (Test System: AMES SALMONELLA TYPHIMURIUM, Strain/Indicator: TA1537, Metabolic Activation: NONE, Method: STANDARD PLATE) was “inactive; negative” and the mutagenic call (Test System: AMES SALMONELLA TYPHIMURIUM, Strain/Indicator: TA1537, Metabolic Activation: RAT, LIVER, S-9, AROCLOR 1254, Method: STANDARD PLATE) was “inactive; negative”.

As for `CC(O)CN(CCN(CC(C)O)CC(C)O)CC(C)O` (centres undefined), the mutagenic call runs as follows: (Test System: AMES SALMONELLA TYPHIMURIUM, Strain/Indicator: TA97, Metabolic Activation: NONE, Method: STANDARD PLATE) “inactive; negative”; (Test System: AMES SALMONELLA TYPHIMURIUM, Strain/Indicator: TA97, Metabolic Activation: S-9, Method: STANDARD PLATE) “inactive; negative”; under setting [1], “inactive; negative”; (Test System: AMES SALMONELLA TYPHIMURIUM, Strain/Indicator: TA98, Metabolic Activation: S-9, Method: STANDARD PLATE) “inactive; negative”; under setting [3], “inactive; negative”; (Test System: AMES SALMONELLA TYPHIMURIUM, Strain/Indicator: TA100, Metabolic Activation: S-9, Method: STANDARD PLATE) “inactive; negative”. The mutagenic call reads like this: (Test System: AMES SALMONELLA TYPHIMURIUM, Strain/Indicator: TA102, Metabolic Activation: NONE, Method: STANDARD PLATE) “inactive; negative”; (Test System: AMES SALMONELLA TYPHIMURIUM, Strain/Indicator: TA102, Metabolic Activation: S-9, Method: STANDARD PLATE) “inactive; negative”; (Test System: E.COLI, Strain/Indicator: WP2 (PKM101), Metabolic Activation: NONE, Method: STANDARD PLATE) “inactive; negative”; (Test System: E.COLI, Strain/Indicator: WP2 (PKM101), Metabolic Activation: S-9, Method: STANDARD PLATE) “inactive; negative”.

In the case of `CCCCNC(=O)NS(=O)(=O)c1ccc(C)cc1`, the mutagenic call (End Point: IN VITRO CHROMOSOMAL ABERRATIONS, Test System: CHO-LB CELLS, Metabolic Activation: NONE) was “inactive; negative” and the mutagenic call (End Point: IN VITRO CHROMOSOMAL ABERRATIONS, Test System: CHO-LB CELLS, Metabolic Activation: RAT, LIVER, S-9, AROCLOR 1254) is “inactive; negative”.

Consider `CNC(=O)Oc1ccc(-c2ccccc2)cc1`, for which the mutagenic call was “inactive; negative” under setting [2] and “active; positive” under setting [4].
